Common to all, as to assay type: biochemical
The target of one test is Tyk2-JH1JH2 (Homo sapiens (Human), UniProt P29597, C1142A/C936A). Nature of the test: Enzymatic inhibition assay (RapidFire HTMS), Tyk2. As to conditions: 50 μM ATP, 200 μM substrate. In a few lines: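 Compounds were tested in duplicate as 11-point 1:3 or 1:4 DMSO dilutions (≤0.25% DMSO final) in 20 μL reactions at 25 °C for 90 min, with Tyk2 pre-incubated 30 min with 2 mM ATP. Reactions were quenched with TFA plus internal standard peptide, and phosphorylated product was quantified by RapidFire C4 SPE–ESI MS.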

The next test deals with JAK3-JH1JH2 (Homo sapiens (Human), UniProt P52333). Nature of the test: Enzymatic inhibition assay (RapidFire HTMS), JAK3. As to conditions: 150 μM ATP, 40 μM substrate. In a few lines: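 Compounds tested in duplicate over 11-point 1:3 or 1:4 dilution series; no-enzyme wells as negative control. After 45 min at 25 °C, TFA quench with internal standard, and phosphorylated product quantified by RapidFire–QTrap mass spectrometry relative to the uninhibited reaction.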

For another test, the target named is JAK2-JH1JH2 (Homo sapiens (Human), UniProt O60674). Nature of the test: Enzymatic inhibition assay (RapidFire HTMS), JAK2. As to conditions: 30 μM ATP, 40 μM substrate. In a few lines: (§1)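 Quenched with 0.5% TFA plus internal-standard peptide; phosphorylated product quantified by RapidFire C4 SPE–ESI-MS, 11-point 1:3 or 1:4 dilutions in duplicate.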
For a further test, the target named is JAK1-JH1JH2 (Homo sapiens (Human), UniProt P23458). Nature of the test: Enzymatic inhibition assay (RapidFire HTMS), JAK1. As to conditions: 12.5 μM ATP, 200 μM substrate; read-out: JAK1-JH2JH1 IC50. The gist of the method:
as §1

Sequence of Tyk2-JH1JH2 (P29597 580-1182 C936A/C1142A): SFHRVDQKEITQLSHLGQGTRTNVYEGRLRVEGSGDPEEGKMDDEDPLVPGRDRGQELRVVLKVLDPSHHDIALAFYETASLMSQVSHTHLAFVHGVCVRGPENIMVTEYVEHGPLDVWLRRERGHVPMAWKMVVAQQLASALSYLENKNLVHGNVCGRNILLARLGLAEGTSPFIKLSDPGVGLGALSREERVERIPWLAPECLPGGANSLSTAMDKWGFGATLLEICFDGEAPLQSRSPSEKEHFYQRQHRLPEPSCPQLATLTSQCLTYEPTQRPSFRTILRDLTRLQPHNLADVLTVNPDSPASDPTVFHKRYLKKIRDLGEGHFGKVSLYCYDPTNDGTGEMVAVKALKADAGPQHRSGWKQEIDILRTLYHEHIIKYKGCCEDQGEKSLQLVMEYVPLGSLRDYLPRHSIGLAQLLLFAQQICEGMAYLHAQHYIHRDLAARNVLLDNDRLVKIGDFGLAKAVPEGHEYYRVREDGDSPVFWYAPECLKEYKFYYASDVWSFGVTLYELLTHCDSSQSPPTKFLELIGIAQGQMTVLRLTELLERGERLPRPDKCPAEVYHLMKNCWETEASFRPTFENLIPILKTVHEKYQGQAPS
Sequence of JAK2-JH1JH2 (O60674 532-1132): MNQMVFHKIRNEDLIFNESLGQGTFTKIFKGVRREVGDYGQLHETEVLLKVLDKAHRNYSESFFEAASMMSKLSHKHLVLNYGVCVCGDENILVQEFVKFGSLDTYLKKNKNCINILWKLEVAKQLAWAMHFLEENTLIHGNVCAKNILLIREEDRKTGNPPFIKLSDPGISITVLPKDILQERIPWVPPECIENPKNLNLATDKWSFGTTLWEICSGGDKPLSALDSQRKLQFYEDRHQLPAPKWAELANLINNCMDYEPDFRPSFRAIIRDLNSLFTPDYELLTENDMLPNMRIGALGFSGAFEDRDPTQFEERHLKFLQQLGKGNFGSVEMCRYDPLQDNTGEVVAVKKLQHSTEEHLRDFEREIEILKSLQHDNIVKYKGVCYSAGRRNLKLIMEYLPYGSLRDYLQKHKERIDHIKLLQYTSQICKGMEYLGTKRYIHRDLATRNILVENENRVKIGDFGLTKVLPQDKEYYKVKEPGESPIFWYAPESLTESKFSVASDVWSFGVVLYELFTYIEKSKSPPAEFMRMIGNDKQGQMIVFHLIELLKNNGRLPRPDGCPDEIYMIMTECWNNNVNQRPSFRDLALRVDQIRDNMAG
Sequence of JAK3-JH1JH2 (P52333 512-1124): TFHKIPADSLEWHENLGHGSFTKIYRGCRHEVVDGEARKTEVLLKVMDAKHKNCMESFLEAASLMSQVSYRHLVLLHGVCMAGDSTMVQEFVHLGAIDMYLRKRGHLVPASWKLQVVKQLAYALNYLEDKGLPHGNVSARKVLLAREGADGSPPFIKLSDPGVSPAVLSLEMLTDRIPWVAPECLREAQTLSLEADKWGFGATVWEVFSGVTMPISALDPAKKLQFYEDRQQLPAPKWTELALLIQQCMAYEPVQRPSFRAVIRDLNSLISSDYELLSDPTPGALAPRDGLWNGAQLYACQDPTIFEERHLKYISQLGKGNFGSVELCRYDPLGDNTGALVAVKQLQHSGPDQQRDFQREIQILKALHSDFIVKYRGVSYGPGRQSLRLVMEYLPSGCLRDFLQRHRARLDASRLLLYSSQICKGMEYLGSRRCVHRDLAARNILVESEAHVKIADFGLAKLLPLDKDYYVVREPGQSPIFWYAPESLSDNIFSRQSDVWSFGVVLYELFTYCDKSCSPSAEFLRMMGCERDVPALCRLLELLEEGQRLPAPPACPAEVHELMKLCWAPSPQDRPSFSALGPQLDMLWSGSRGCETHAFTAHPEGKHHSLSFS
Sequence of JAK1-JH1JH2 (P23458 574-1154): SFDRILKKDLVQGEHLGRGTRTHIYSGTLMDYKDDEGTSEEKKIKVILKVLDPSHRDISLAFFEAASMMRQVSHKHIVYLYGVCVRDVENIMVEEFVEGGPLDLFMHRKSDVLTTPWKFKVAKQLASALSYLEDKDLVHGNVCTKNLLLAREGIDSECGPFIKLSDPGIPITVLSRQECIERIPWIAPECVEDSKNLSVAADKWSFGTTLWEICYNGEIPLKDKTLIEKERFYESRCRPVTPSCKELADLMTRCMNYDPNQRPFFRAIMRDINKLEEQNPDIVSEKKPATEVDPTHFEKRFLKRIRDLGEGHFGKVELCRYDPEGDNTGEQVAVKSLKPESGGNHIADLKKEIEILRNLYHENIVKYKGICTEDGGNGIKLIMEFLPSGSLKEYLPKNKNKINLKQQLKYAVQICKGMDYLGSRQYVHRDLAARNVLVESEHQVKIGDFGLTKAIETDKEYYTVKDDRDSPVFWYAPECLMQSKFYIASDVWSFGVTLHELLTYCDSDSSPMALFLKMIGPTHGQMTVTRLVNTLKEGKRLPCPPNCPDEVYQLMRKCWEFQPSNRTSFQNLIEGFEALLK

Regarding `CC(C)/C(N)=N/OCc1nc2cnc3[nH]ccc3c2n1[C@H]1CC[C@H](CC#N)CC1` [Ex. 150, (Z*)—N-((1-((1r,4r)-4-(Cyanomethyl)cyclohexyl)-1,6-dihydroimidazo[4,5-d]pyrrolo[2,3-b]pyridin-2-yl)methoxy)isobutyrimidamide], the IC50 is 34 nM on Tyk2-JH1JH2, 110 nM at JAK3-JH1JH2, 10 nM at JAK2-JH1JH2 and 1.2 nM at JAK1-JH1JH2.
The corresponding values for `N#CC[C@H]1CC[C@H](n2c(CO/N=C(\N)C3CC3)nc3cnc4[nH]ccc4c32)CC1` [Ex. 151, (Z*)—N-((1-((1r,4r)-4-(Cyanomethyl)cyclohexyl)-1,6-dihydroimidazo[4,5-d]pyrrolo[2,3-b]pyridin-2-yl)methoxy)cyclopropanecarboximidamide] are 37.1 nM, 103 nM, 10.6 nM and 1.4 nM.
Regarding `N#CC[C@H]1CC[C@H](n2c(CO/N=C(\N)C34CC5CC(CC(C5)C3)C4)nc3cnc4[nH]ccc4c32)CC1` [Ex. 152, (3R,5R,7R,E*)-N′-((1-((1r,4r)-4-(Cyanomethyl)cyclohexyl)-1,6-dihydroimidazo[4,5-d]pyrrolo[2,3-b]pyridin-2-yl)methoxy)adamantane-1-carboximidamide], the IC50 against Tyk2-JH1JH2 amounted to 53.5 nM; against JAK3-JH1JH2 it was 803 nM; against JAK2-JH1JH2 it was 21.2 nM; at JAK1-JH1JH2, 2.8 nM.
The corresponding values for `N#CC[C@H]1CC[C@H](n2c(CNC(=O)NCC3CCCCC3)nc3cnc4[nH]ccc4c32)CC1` [Ex. 155, 1-((1-((1r,4r)-4-(Cyanomethyl)cyclohexyl)-1,6-dihydroimidazo[4,5-d]pyrrolo[2,3-b]pyridin-2-yl)methyl)-3-(cyclohexylmethyl)urea] are 20.1 nM, 368 nM, 48.5 nM and 1.3 nM.
The corresponding values for `N#CC[C@H]1CC[C@H](n2c(CNC(=N)C34CC5CC(CC(C5)C3)C4)nc3cnc4[nH]ccc4c32)CC1` [Ex. 156, (3R,5R,7R)—N-((1-((1r,4r)-4-(Cyanomethyl)cyclohexyl)-1,6-dihydroimidazo[4,5-d]pyrrolo[2,3-b]pyridin-2-yl)methyl)adamantane-1-carboximidamide] are 2.9 nM, 1320 nM, 33.6 nM and 1.3 nM.
With `N#CCCC(=O)NCc1nc2cnc3[nH]ccc3c2n1[C@H]1CC[C@H](CC#N)CC1` [Ex. 157, 3-Cyano-N-((1-((1r,4r)-4-(cyanomethyl)cyclohexyl)-1,6-dihydroimidazo[4,5-d]pyrrolo[2,3-b]pyridin-2-yl)methyl)propanamide], the IC50 was found to be 39.5 nM on Tyk2-JH1JH2, 1110 nM against JAK3-JH1JH2, 74.9 nM against JAK2-JH1JH2 and 1.4 nM at JAK1-JH1JH2.
For `CC(C)(C)OC(=O)NCc1nc2cnc3[nH]ccc3c2n1[C@H]1CC[C@H](CC#N)CC1` [Ex. 158, tert-Butyl ((1-((1r,4r)-4-(Cyanomethyl)cyclohexyl)-1,6-dihydroimidazo[4,5-d]pyrrolo[2,3-b]pyridin-2-yl)methyl)carbamate], the IC50 is 59.5 nM on Tyk2-JH1JH2, 630 nM at JAK3-JH1JH2, 77.9 nM at JAK2-JH1JH2 and 1.4 nM at JAK1-JH1JH2.
For the compound `N#CC[C@H]1CC[C@H](n2c(C3CNC3)nc3cnc4[nH]ccc4c32)CC1` [Ex. 159, 2-((1r,4r)-4-(2-(Azetidin-3-yl)imidazo[4,5-d]pyrrolo[2,3-b]pyridin-1(6H)-yl)cyclohexyl)acetonitrile], the IC50 at Tyk2-JH1JH2 worked out at 19 nM; at JAK3-JH1JH2, 1230 nM; against JAK2-JH1JH2, 57 nM; on JAK1-JH1JH2 it was 1.6 nM.
`N#CCC(=O)N1CC(c2nc3cnc4[nH]ccc4c3n2[C@H]2CC[C@H](CC#N)CC2)C1` [Ex. 160, 3-(3-(1-((1r,4r)-4-(Cyanomethyl)cyclohexyl)-1,6-dihydroimidazo[4,5-d]pyrrolo[2,3-b]pyridin-2-yl)azetidin-1-yl)-3-oxopropanenitrile]: the IC50 came to 52.4 nM on Tyk2-JH1JH2, 1080 nM against JAK3-JH1JH2, 87.1 nM against JAK2-JH1JH2 and 1.5 nM on JAK1-JH1JH2.
Consider `COCCNC(=O)OCc1nc2cnc3[nH]ccc3c2n1[C@H]1CC[C@H](CC#N)CC1` [Ex. 161, (1-((1r,4r)-4-(Cyanomethyl)cyclohexyl)-1,6-dihydroimidazo[4,5-d]pyrrolo[2,3-b]pyridin-2-yl)methyl (2-methoxyethyl)carbamate], for which the IC50 amounted to 20 nM against Tyk2-JH1JH2, 260 nM against JAK3-JH1JH2, 20 nM against JAK2-JH1JH2 and 1.6 nM at JAK1-JH1JH2.
In the case of `C[S@](=O)(=NCc1nc2cnc3[nH]ccc3c2n1[C@H]1CC[C@H](CC#N)CC1)c1ccccc1` [Ex. 162, 2-((1r,4r)-4-(2-((((R)-Methyl(oxo)(phenyl)-λ^6-sulfanylidene)amino)methyl)imidazo[4,5-d]pyrrolo[2,3-b]pyridin-1(6H)-yl)cyclohexyl)acetonitrile], the IC50 against Tyk2-JH1JH2 turned out to be 81.7 nM; against JAK3-JH1JH2, 2270 nM; against JAK2-JH1JH2, 113 nM; at JAK1-JH1JH2, 1.6 nM.
Take `C[S@@](=O)(=NCc1nc2cnc3[nH]ccc3c2n1[C@H]1CC[C@H](CC#N)CC1)c1ccccc1` [Ex. 163, 2-((1r,4r)-4-(2-((((S)-methyl(oxo)(phenyl)-λ^6-sulfanylidene)amino)methyl)imidazo[4,5-d]pyrrolo[2,3-b]pyridin-1(6H)-yl)cyclohexyl)acetonitrile]: the IC50 worked out at 60.8 nM at Tyk2-JH1JH2, 864 nM at JAK3-JH1JH2, 21.2 nM against JAK2-JH1JH2 and 3.2 nM at JAK1-JH1JH2.
The corresponding values for `CC(=O)N1CCC(c2nc3cnc4[nH]ccc4c3n2[C@H]2CC[C@H](CC#N)CC2)CC1` [Ex. 164, 2-((1r,4r)-4-(2-(1-Acetylpiperidin-4-yl)imidazo[4,5-d]pyrrolo[2,3-b]pyridin-1(6H)-yl)cyclohexyl)acetonitrile] are 174 nM, 2150 nM, 125 nM and 1.6 nM.
On to `N#CC[C@H]1CC[C@H](n2c(Cn3c(C4CC4)noc3=O)nc3cnc4[nH]ccc4c32)CC1` [Ex. 165, 2-((1r,4r)-4-(2-((3-Cyclopropyl-5-oxo-1,2,4-oxadiazol-4(5H)-yl)methyl)imidazo[4,5-d]pyrrolo[2,3-b]pyridin-1(6H)-yl)cyclohexyl)acetonitrile], for which the half-maximal inhibitory concentration (IC50) against Tyk2-JH1JH2 was 30.5 nM; at JAK3-JH1JH2, 2700 nM; against JAK2-JH1JH2, 122 nM; at JAK1-JH1JH2, 1.7 nM.
With `N#CC[C@H]1CC[C@H](n2c(-c3cnn(Cc4cocn4)c3)nc3cnc4[nH]ccc4c32)CC1` [Ex. 166, 2-((1r,4r)-4-(2-(1-(Oxazol-4-ylmethyl)-1H-pyrazol-4-yl)imidazo[4,5-d]pyrrolo[2,3-b]pyridin-1(6H)-yl)cyclohexyl)acetonitrile], the IC50 against Tyk2-JH1JH2 is 37.3 nM; against JAK3-JH1JH2, 144 nM; against JAK2-JH1JH2 it was 17 nM; on JAK1-JH1JH2, 1.8 nM.
Turning to `CC(C)(O)CN1CCC(c2nc3cnc4[nH]ccc4c3n2[C@H]2CC[C@H](CC#N)CC2)CC1` [Ex. 168, 2-((1r,4r)-4-(2-(1-(2-Hydroxy-2-methylpropyl)piperidin-4-yl)imidazo[4,5-d]pyrrolo[2,3-b]pyridin-1(6H)-yl)cyclohexyl)acetonitrile], the IC50 stood at 30.7 nM against Tyk2-JH1JH2, 1570 nM on JAK3-JH1JH2, 34.2 nM on JAK2-JH1JH2 and 2 nM on JAK1-JH1JH2.
The corresponding values for `C#Cc1ccc(C(=O)c2ccc(-c3nc4cnc5[nH]ccc5c4n3[C@H]3CC[C@H](CC#N)CC3)cc2)cc1` [Ex. 169, 2-((1r,4r)-4-(2-(4-(4-Ethynylbenzoyl)phenyl)imidazo[4,5-d]pyrrolo[2,3-b]pyridin-1(6H)-yl)cyclohexyl)acetonitrile] are 104 nM, 5640 nM, 30.7 nM and 2 nM.
On to `C#Cc1ccc(C(=O)c2ccc(CCc3nc4cnc5[nH]ccc5c4n3[C@H]3CC[C@H](CC#N)CC3)cc2)cc1` [Ex. 170, 2-((1r,4r)-4-(2-(4-(4-Ethynylbenzoyl)phenethyl)imidazo[4,5-d]pyrrolo[2,3-b]pyridin-1(6H)-yl)cyclohexyl)acetonitrile], for which the IC50 against Tyk2-JH1JH2 is 26.4 nM; against JAK3-JH1JH2, greater than 12500 nM; on JAK2-JH1JH2, 80.9 nM; at JAK1-JH1JH2, 1.5 nM.
For `CC(C)NC(=O)NCc1nc2cnc3[nH]ccc3c2n1[C@H]1CC[C@H](CC#N)CC1` [Ex. 171, 1-((1-((1r,4r)-4-(Cyanomethyl)cyclohexyl)-1,6-dihydroimidazo[4,5-d]pyrrolo[2,3-b]pyridin-2-yl)methyl)-3-isopropylurea], the IC50 against Tyk2-JH1JH2 turned out to be 18.8 nM; against JAK3-JH1JH2, 211 nM; on JAK2-JH1JH2 it was 33.9 nM; on JAK1-JH1JH2 it was 2 nM.
The corresponding values for `CC(C)NC(=O)c1nc2cnc3[nH]ccc3c2n1[C@H]1CC[C@H](CC#N)CC1` [Ex. 172, 1-((1r,4r)-4-(Cyanomethyl)cyclohexyl)-N-isopropyl-1,6-dihydroimidazo[4,5-d]pyrrolo[2,3-b]pyridine-2-carboxamide] are 53.5 nM, 3060 nM, 75.2 nM and 2.1 nM.
For `COCCCNC(=O)c1nc2cnc3[nH]ccc3c2n1[C@H]1CC[C@H](CC#N)CC1` [Ex. 173, 1-((1r,4r)-4-(Cyanomethyl)cyclohexyl)-N-(3-methoxypropyl)-1,6-dihydroimidazo[4,5-d]pyrrolo[2,3-b]pyridine-2-carboxamide], the IC50 against Tyk2-JH1JH2 amounted to 55.9 nM; against JAK3-JH1JH2, 732 nM; at JAK2-JH1JH2, 28 nM; on JAK1-JH1JH2, 1.3 nM.

The values above are taken from patent publication US10981911B2, “Imidazopyrrolopyridine as inhibitors of the JAK family of kinases” (Janssen Pharmaceutica NV, priority 2016, dated 2021).
